Biological target: T1, eEF2 (Saccharomyces cerevisiae, UniProt P32324)
T1 construct: gene EFT1; native full-length eEF2 purified from yeast, diphthamide at residue 699
Assay: X-ray crystallography, […] Å
Type: binding
Settings: on the 80S ribosome with mRNA, Phe-tRNAPhe and fMet-tRNAfMet; GTP pocket of G domain, next to sarcin-ricin loop; Mg2+; 0.25 mM ligand

T1 sequence (P32324 whole entry): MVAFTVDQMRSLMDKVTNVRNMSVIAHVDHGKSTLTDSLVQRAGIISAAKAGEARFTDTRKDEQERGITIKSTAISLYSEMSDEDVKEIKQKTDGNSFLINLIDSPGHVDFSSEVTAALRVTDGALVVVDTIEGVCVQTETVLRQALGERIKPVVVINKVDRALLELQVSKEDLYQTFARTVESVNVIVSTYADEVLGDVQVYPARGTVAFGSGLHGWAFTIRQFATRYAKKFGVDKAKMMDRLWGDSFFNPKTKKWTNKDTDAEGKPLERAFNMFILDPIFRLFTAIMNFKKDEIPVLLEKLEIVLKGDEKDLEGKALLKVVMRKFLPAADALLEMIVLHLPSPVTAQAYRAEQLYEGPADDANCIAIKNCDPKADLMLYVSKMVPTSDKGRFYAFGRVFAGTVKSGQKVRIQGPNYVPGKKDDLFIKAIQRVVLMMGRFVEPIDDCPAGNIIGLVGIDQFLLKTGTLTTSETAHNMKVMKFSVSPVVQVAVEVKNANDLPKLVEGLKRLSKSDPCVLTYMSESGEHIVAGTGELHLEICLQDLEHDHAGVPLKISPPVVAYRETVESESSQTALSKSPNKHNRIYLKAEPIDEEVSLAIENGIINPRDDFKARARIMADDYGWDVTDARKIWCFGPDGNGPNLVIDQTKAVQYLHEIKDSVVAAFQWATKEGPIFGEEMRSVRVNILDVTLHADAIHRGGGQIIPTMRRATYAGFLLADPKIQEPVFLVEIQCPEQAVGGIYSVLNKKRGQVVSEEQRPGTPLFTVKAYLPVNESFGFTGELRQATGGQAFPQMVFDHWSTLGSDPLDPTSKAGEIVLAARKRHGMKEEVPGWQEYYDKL

For Nc1nc2c(ncn2[C@@H]2O[C@H](COP(=O)(O)OP(=O)(O)CP(=O)(O)O)[C@@H](O)[C@H]2O)c(=O)[nH]1 [GMPPCP], the “X-ray crystallography, 3.2 Å” value was “native S. cerevisiae eEF2, the nonhydrolyzable GTP analogue GMPPCP, mRNA and two tRNAs”.

Source: paper PMC8674143, “Accuracy mechanism of eukaryotic ribosome translocation” (Nature, 2021)
